Results as given in patent US12594271B2, “Combination therapy for cancer” (Health Research, Inc., priority 2019, dated 2026).
Entries after “also recorded” stand apart in the source; their conditions may differ.

What was measured:
[1] = system: MDSCs; assay: Phenotype, viability and morphology of in vitro generated MDSC cultures; format: cell-based, mouse
Method: In Vitro Development of MDSCs. Unfractionated mouse bone marrow cells were cultured in dishes with recombinant mouse G-CSF and recombinant mouse GM-CSF (40 ng/ml of each cytokine) for 96 hours to produce MDSCs, as described (Marigo et al. Immunity 32:790-802, 2010). After culture, cells were collected and analyzed by flow cytometry for the indicated cell surface markers. Uncultured or fresh bone marrow (BM) cells served as a negative control.
Effect of BRQ Treatment on In Vitro Generated MDSCs. As in FIG. 4, MDSCs were generated in vitro, but now with or without (vehicle) the concurrent addition of brequinar (BRQ) (1 μM) at the start of the culture. After culture, cells were collected and analyzed by flow cytometry for the indicated cell surface markers. Uncultured (fresh) BM cells served as a negative control. Viable cells were enumerated by trypan blue dye exclusion (bottom left panel, % viability; bottom right panel, total viable cells recovered).
Cells Treated with BRQ Appear More Mature Morphologically and Phenotypically. Methods were the same as in FIG. 6. MDSCs were generated in vitro with or without BRQ. Afterwards, cells were collected and analyzed morphologically by Wright-Giemsa staining of cytospin-prepared slides. Left top panel, representative photomicrograph images [(arrows indicate representative immature myeloid (−BRQ) vs. mature (+BRQ) cell types)]; Left bottom panel, the % of each cell type was quantified as follows. Cells were classified into 3 main morphologic cell types, as shown. For the lower panel, 300 cells were analyzed per random field and 3 separate fields were analyzed (totaling 900 cells). The average number of each cell type was determined by dividing by 3, and the data were converted to a percentage within the total population. Using the in vitro assay described previously to produce MDSCs, the CD11b^+Ly6C^lo Ly6G^+ subset (also known as PMN-MDSCs) was analyzed for cell surface CD101 expression by flow cytometry on cultures without BRQ (labeled here as ‘GM-CSF+G-CSF’) or with BRQ. Isotype control staining was included as a negative control for the specificity of CD101 reactivity. Middle panel, representative histogram; right panel, mean fluorescence intensity (MFI) data quantified from 2 separate experiments.

[2] = system: myeloid cells and T cells of 4T1 tumor-bearing mice; assay: Flow cytometry of spleen, bone marrow and tumor cells from 4T1 tumor-bearing mice; format: in vivo
Method: FIG. 1. […] (A) 4T1 growth in mice treated daily with BRQ (10 mg/kg, i.p.), anti-PD-1 ([…], i.p. at the indicated 3 or 4 times) or both agents. n=5 mice/group/experiment for upper and lower graphs; *P<0.01 against single-agent treatments. B-D, data shown are for analysis of A, upper graph. (B) Spontaneous metastatic lung counts; *P<0.01. Similar patterns seen in the 2nd experiment (avg. #mets): vehicle=12; BRQ=1; αPD-1=5; combo=1. (C) Splenic granulocytic (CD11b^+Ly6C^loLy6G^+) or monocytic (CD11b^+Ly6C^hiLy6G^−) numbers in non-tumor-bearing (NTB) or tumor-bearing mice were converted to a ratio for group-by-group comparison; *P<0.03. (D) Splenic CD3^+ T cell numbers in tumor-bearing mice. (E) Splenic CD8^+ T cells in A (lower graph) were assayed based on differential expression of CD44:naïve ([…]) vs. effector/central memory (hi) phenotypes. *P<0.03. Data reported as a ratio to indicate a rising memory pool. Data in B-E are at endpoint; ns, not significant.
Treatment of Tumor-Bearing Mice Alters Surface Phenotype of Myeloid Cells. […] Female BALB/c or C57BL/6 mice were orthotopically implanted with 4T1 or AT-3 mammary tumor cells, respectively, and were monitored 3 times weekly for tumor growth. When tumors became measurable (indicated by the arrow), BRQ was administered daily (10 mg/kg intraperitoneally), and at endpoint the BM cells or spleens were collected for flow cytometric analysis for the expression (i.e., percentage or MFI value) of the indicated cell surface markers (FIGS. 13-15). We extended our in vitro studies with BRQ to […] to determine the impact of BRQ on MDSC maturation. To that end, mice bearing orthotopically implanted mammary tumors were treated with or without BRQ in vivo using a similarly previously reported dose, frequency and schedule (Sykes et al. Cell 167:171-186, 2016). The first tumor model chosen was 4T1, which is an aggressive mammary tumor cell line that induces a robust MDSC response largely comprised of PMN-MDSCs.
The upper panels of FIG. 14 are representative flow cytometry plots of the non-tumor-bearing (NTB) or tumor-bearing cohorts without (vehicle) or with BRQ. The middle panel histogram represents CD101 expression on the gated (boxed) populations of the upper panels. In this case, the far-right histograms refer to the gated-boxed right dot plot (for the PMN or granulocytic subset), whereas the gated-boxed left histogram refers to the gated-boxed upper left dot plot (for the monocytic subset). […] FIG. 15 refers to the quantification of the CD101 data from non-tumor-bearing mice or tumor-bearing mice with or without BRQ, based on both the CD101 MFI values and the percentages of CD101^+ (or high-expressing) cells reflecting the monocytic subset (upper left histogram and middle left table) or the PMN-MDSC subset (upper right histogram and middle right table). The quantification appears in the lower left and right graphs. Each point represents an individual mouse.
Effect of Treatment of Tumor-Bearing Mice with BRQ on the Efficacy of Anti-Tumor Immunotherapy. […] At endpoint, BM cells or spleens were collected and analyzed for the indicated populations by flow cytometry. These experiments sought to determine whether BRQ can act in the bone marrow environment. […] The frequency of these cells approached levels seen in the non-tumor-bearing controls. […] Moreover, analysis of the systemic impact of BRQ on T cell numbers and their activation/memory state was performed on splenic population at endpoint (FIG. 20). […] This analysis at the time was not performed on cohorts treated with anti-PD-1 mAb alone or the combination, since the intent was to focus on the effect of BRQ on T cell numbers and their phenotypic states.
Treatment of Tumor-Bearing Mice with BRQ Increases the Proliferative Capacity and Activation of Intra-Tumoral T Cells. Experimental design is as described in FIG. 12. […]

[3] = BRQ 1 μM, trypan blue dye exclusion
[4] = bone marrow cells cultured with BRQ, morphologic analyses
[5] = cultures with BRQ, Wright-Giemsa staining
[6] = 4T1, BRQ 10 mg/kg i.p. daily, spleen
[7] = 4T1 tumor-bearing mice, endpoint

## Cc1c(-c2ccc(-c3ccccc3F)cc2)nc2ccc(F)cc2c1C(=O)O [BRQ, 6-Fluoro-2-(2′-fluoro-[1,1′-biphenyl]-4-yl)-3-methylquinoline-4-carboxylic acid]
[1]; BRQ 1 μM, flow cytometry
  generation of CD11b+Gr-1+ cells: did not substantially alter
[1]; [3]
  cell viability: not significantly altered
  number of live cells recovered: substantially reduced
[1]; [4]
  mature myeloid cells (mainly neutrophils and macrophages): corresponding increase in mature myeloid cells
  reduction in immature myeloid cells: 75%
[1]; [5]
  immature cell types: reduction in immature cell types
  proportion of macrophages: no demonstrable effect
  proportion of segmented neutrophils: increased the proportion of segmented neutrophils
[1]; cultures with BRQ, flow cytometry
  cell surface CD101 expression (MFI) on CD11b+Ly6CloLy6G+ subset: significantly increased the expression of CD101
[2]; 4T1, BRQ 10 mg/kg i.p. daily
  CD101 expression on splenic granulocytic populations: significantly increased CD101 expression
  accumulation of the granulocytic population in the spleen: did not significantly alter
[2]; [6]
  Ly6C expression on granulocytic cells: significantly higher expression of the cell surface Ly6C
  Ly6G expression on granulocytic cells: trended upward but did not reach statistical significance
[2]; 4T1, endpoint
  tumor-driven expansion of myeloid progenitor populations GMP or GP in bone marrow: reduced tumor-driven expansion
[2]; 4T1, vs vehicle controls
  accumulation of CD11b+Gr-1+ cells in bone marrow: reduced the accumulation of CD11b^+Gr-1^+ cells
[2]; 4T1 tumor-bearing mice vs non-tumor-bearing controls, endpoint
  splenic granulocyte to monocyte ratio: significantly altered the granulocyte to monocyte ratio resembling the non-tumor-bearing controls
[2]; [7]
  splenic CD3+ T cell numbers: did not alter; also recorded: no negative effect
  splenic CD8+ T cell memory populations (ratio of memory to naïve T cells by CD44): did not alter; also recorded: no negative effect
[2]; tumor tissue at endpoint
  CD44 expression on intratumoral CD8+ and CD4+ T cells: Increases in CD44 expression were similarly observed
  proliferative capacity of intratumoral CD8+ and CD4+ T cells (percentages of Ki-67+ cells): significant increases in the proliferative capacity
